Results: patent US10669283B2, “Compound and pharmacologically acceptable salt thereof” (MEIJI SEIKA PHARMA CO., LTD., priority 2016, dated 2020)

Tests used:
[1] = Hepatic metabolic stability (rat liver microsome method); type: in vitro ADME; settings: rat liver microsomes 0.5 mg/mL, test substance 1 μM, NADPH 1 mM, 37° C., 30 minutes
Summary of the method: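 Test compound (1 μM) preincubated with rat liver microsomes (0.5 mg/mL) in 100 mM potassium phosphate pH 7.4 at 37° C; NADPH (1 mM) started reaction, acetonitrile stopped it at 0 and 30 min. LC-MS quantitation; % remaining = 30-min/0-min ×100, graded A ≥75%, B 60–<75%, C 45–<60%, D <45%.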

[2] = tested on: PDE4; assay: PDE4 inhibition, scintillation proximity assay (SPA); type: biochemical; settings: scintillation proximity assay; class symbols; read-out: PDE4 Inhibitory Activity
Summary of the method: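 Compound pre-diluted 1:10 in 50 mM Tris-HCl pH 7.4, 8.3 mM MgCl2, 1.7 mM EGTA, 3 mg/mL BSA, then incubated with PDE4 and [2,8-3H]-cAMP for 120 min at room temperature. Product captured on ZnSO4-containing YSi-SPA beads for 15 min; radioactivity counted against no-enzyme blank and DMSO control.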

Structure (SMILES) | Residual ratio (% remaining for 30-minute reaction) [1] | IC50 [2] [nM]
c1cc(-c2nccs2)c2oc(N3CC4CC(C3)N4)nc2c1 [Example 382, 2-(3,6-diaza-bicyclo[3.1.1]heptan-3-yl)-7-(thiazol-2-yl) benzo[d]oxazole] | B (60% or more and less than 75%) | < 100
O=S(=O)(NCCO)c1ccc(-c2nccs2)c2oc(N3CC4CC(C3)N4)nc12 [Example 385, 2-(3,6-diazabicyclo[3.1.1]heptan-3-yl)-N-(2-hydroxyethyl)-7-(thiazol-2-yl) benzo[d]oxazole-4-sulfonamide] | A (a % remaining rate of 75% or more) | < 100
COCCNS(=O)(=O)c1ccc(-c2nccs2)c2oc(N3CC4CC(C3)N4)nc12 [Example 387, 2-(3,6-diazabicyclo[3.1.1]heptan-3-yl)-N-(2-methoxyethyl)-7-(thiazol-2-yl)benzo [d]oxazole-4-sulfonamide] | A (a % remaining rate of 75% or more) | < 100
O=S(=O)(c1ccc(-c2nccs2)c2oc(N3CC4CC(C3)N4)nc12)N1CCOCC1 [Example 391, 2-(3,6-diazabicyclo [3.1.1]heptan-3-yl)-4-(morpholino-sulfonyl)-7-(thiazol-2-yl)benzo [d]oxazole] | B (60% or more and less than 75%) | < 100
COCC(F)(F)Oc1ccc(-c2nccs2)c2oc(N3CC4CC(C3)N4)nc12 [Example 392, 2-(3,6-diazabicyclo[3.1.1]heptan-3-yl)-4-(1,1-difluoro-2-methoxyethoxy)-7-(thiazol-2-yl) benzo[d]oxazole] | B (60% or more and less than 75%) | < 100
Cn1ccc(-c2ccc(OC(F)(F)C(C)(C)O)c3nc(N4CC5CC(C4)N5)oc23)n1 [Example 394, 1-((2-(3,6-diazabicyclo[3.1.1]heptan-3-yl)-7-(1-methyl-1H-pyrazol-3-yl)benzo[d]oxazol-4-yl)oxy)-1,1-difluoro-2-methylpropan-2-ol] | A (a % remaining rate of 75% or more) | 100 to 1000
CCC(O)C(F)(F)Oc1ccc(-c2nccs2)c2oc(N3CC4CC(C3)N4)nc12 (stereo not drawn) [Example 395, 1-((2-(3,6-diazabicyclo[3.1.1]heptan-3-yl)-7-(thiazol-2-yl)benzo[d]oxazol-4-yl)oxy)-1,1-difluorobutan-2-ol] | B (60% or more and less than 75%) | < 100
OC1CCN(c2ccc(-c3nccs3)c3oc(N4CC5CC(C4)N5)nc23)CC1 [Example 397, 1-(2-(3,6-diazabicyclo[3.1.1]heptan-3-yl)-7-(thiazol-2-yl)benzo [d]oxazol-4-yl) piperidin-4-ol] | A (a % remaining rate of 75% or more) | < 100
CC(C)(O)C(F)(F)Oc1c(Br)cc(-c2nccs2)c2oc(N3CC4CC(C3)N4)nc12 [Example 399, 1-((2-(3,6-diazabicyclo [3.1.1]heptan-3-yl)-5-bromo-7-(thiazol-2-yl)benzo[d]oxazol-4-yl)oxy)-1,1-difluoro-2-methylpropan-2-ol] | B (60% or more and less than 75%) | < 100
CC(C)(O)C(F)(F)Oc1c(Cl)cc(-c2nccs2)c2oc(N3CC4CC(C3)N4)nc12 [Example 400, 1-((2-(3,6-diazabicyclo [3.1.1]heptan-3-yl)-5-chloro-7-(thiazol-2-yl)benzo[d]oxazol-4-yl)oxy)-1,1-difluoro-2-methylpropan-2-ol] | B (60% or more and less than 75%) | < 100
OCC(F)(F)Oc1c(Cl)cc(-c2nccs2)c2oc(N3CC4CC(C3)N4)nc12 [Example 401, 2-((2-(3,6-diazabicyclo [3.1.1]heptan-3-yl)-5-chloro-7-(thiazol-2-yl)benzo[d]oxazol-4-yl)oxy)-2,2-difluoroethan-1-ol] | A (a % remaining rate of 75% or more) | < 100
OCC(F)(F)Oc1ccc(-c2nccs2)c2oc(N3CC4CCC(C3)N4)nc12 [Example 404, 2-((2-(3,8-diazabicyclo [3.2.1]octan-3-yl) 7-(thiazol-2-yl)benzo[d]oxazol-4-yl)oxy)-2,2-difluoroethan-1-ol] | B (60% or more and less than 75%) | < 100
CC(C)(O)C(F)(F)Oc1ccc(-c2nccs2)c2oc(N3CC4CCC(C3)N4)nc12 [Example 405, 1-((2-(3,8-diazabicyclo [3.2.1]octan-3-yl)-7-(thiazol-2-yl)benzo[d]oxazol-4-yl)oxy)-1,1-difluoro-2-methylpropan-2-ol] | B (60% or more and less than 75%) | < 100
O=C(N1CCOCC1)C(F)(F)Oc1ccc(-c2nccs2)c2oc(N3CC4CC(C3)N4)nc12 [Example 409, 2-((2-(3,6-diazabicyclo [3.1.1]heptan-3-yl)-7-(thiazol-2-yl)benzo[d]oxazol-4-yl)oxy)-2,2-difluoro-1-morpholino-ethan-1-one] | B (60% or more and less than 75%) | < 100
NC(=O)C(F)(F)Oc1ccc(-c2nccs2)c2oc(N3CC4CC(C3)N4)nc12 [Example 410, 2-((2-(3,6-diazabicyclo [3.1.1]heptan-3-yl)-7-(thiazol-2-yl)benzo[d]oxazol-4-yl)oxy)-2,2-difluoro-acetamide] | A (a % remaining rate of 75% or more) | < 100
O=C(NCCO)C(F)(F)Oc1ccc(-c2nccs2)c2oc(N3CC4CC(C3)N4)nc12 [Example 411, 2-((2-(3,6-diazabicyclo [3.1.1]heptan-3-yl)-7-(thiazol-2-yl)benzo[d]oxazol-4-yl)oxy)-2,2-difluoro-N-(2-hydroxy-ethyl) acetamide] | A (a % remaining rate of 75% or more) | < 100
O=C(N1CC(O)C1)C(F)(F)Oc1ccc(-c2nccs2)c2oc(N3CC4CC(C3)N4)nc12 [Example 412, 2-((2-(3,6-diazabicyclo [3.1.1]heptan-3-yl)-7-(thiazol-2-yl)benzo[d]oxazol-4-yl)oxy)-2,2-difluoro-1-(3-hydroxy-azetidin-1-yl)ethan-1-one] | A (a % remaining rate of 75% or more) | < 100
FC(F)(F)c1ccc(Oc2cc(-c3nccs3)c3oc(N4CC5CC(C4)N5)nc3c2)nc1 [Example 413, 2-(3,6-diazabicyclo [3.1.1]heptan-3-yl)-7-(thiazol-2-yl)-5-((5-(trifluoro-methyl)pyridin-2-yl)oxy) benzo[d] oxazole] | A (a % remaining rate of 75% or more) | < 100
